IC50, Activity and CC50 data for one molecule are collected here from ChEMBL document CHEMBL4602709 (ACS Med Chem Lett, 2020).

What is called IC50 is the midpoint of a concentration-inhibition curve. In general, CC50 refers to the concentration that lowers cell viability or growth by half.

In data set [1] the target is Serine/threonine-protein kinase Nek6 (Homo sapiens, UniProt Q9HC98). The data set is described as follows: Inhibition of NEK6 (unknown origin) assessed as residual activity incubated for 5 mins in presence of [gamma-33ATP] by scintillation counting based radiometry assay.
Data set [2] has as its target Ephrin type-A receptor 4 (Homo sapiens) (UniProt P54764). The data set is described as follows: Inhibition of EPHA4 (unknown origin) assessed as residual activity at 10 uM incubated for 5 mins in presence of [gamma-33ATP] by scintillation counting based radiometry assay relative to control.
For data set [3], the target named is Platelet-derived growth factor receptor alpha (Homo sapiens, UniProt P16234). Kind of data set: Inhibition of PDGFRalpha (unknown origin) assessed as residual activity incubated for 5 mins in presence of [gamma-33ATP] by scintillation counting based radiometry assay.
In data set [4] the target is Proto-oncogene tyrosine-protein kinase Src (Homo sapiens, UniProt P12931). The data set is described as follows: Inhibition of SRC (unknown origin) assessed as residual activity incubated for 5 mins in presence of [gamma-33ATP] by scintillation counting based radiometry assay.
For data set [5], the target named is Tyrosine-protein kinase Lck (Homo sapiens, UniProt P06239). Kind of data set: Inhibition of LCK (unknown origin) assessed as residual activity incubated for 5 mins in presence of [gamma-33ATP] by scintillation counting based radiometry assay.
Data set [6] deals with T1, Ephrin type-B receptor 3 (Homo sapiens, UniProt P54753).
T1 sequence (P54753 whole entry): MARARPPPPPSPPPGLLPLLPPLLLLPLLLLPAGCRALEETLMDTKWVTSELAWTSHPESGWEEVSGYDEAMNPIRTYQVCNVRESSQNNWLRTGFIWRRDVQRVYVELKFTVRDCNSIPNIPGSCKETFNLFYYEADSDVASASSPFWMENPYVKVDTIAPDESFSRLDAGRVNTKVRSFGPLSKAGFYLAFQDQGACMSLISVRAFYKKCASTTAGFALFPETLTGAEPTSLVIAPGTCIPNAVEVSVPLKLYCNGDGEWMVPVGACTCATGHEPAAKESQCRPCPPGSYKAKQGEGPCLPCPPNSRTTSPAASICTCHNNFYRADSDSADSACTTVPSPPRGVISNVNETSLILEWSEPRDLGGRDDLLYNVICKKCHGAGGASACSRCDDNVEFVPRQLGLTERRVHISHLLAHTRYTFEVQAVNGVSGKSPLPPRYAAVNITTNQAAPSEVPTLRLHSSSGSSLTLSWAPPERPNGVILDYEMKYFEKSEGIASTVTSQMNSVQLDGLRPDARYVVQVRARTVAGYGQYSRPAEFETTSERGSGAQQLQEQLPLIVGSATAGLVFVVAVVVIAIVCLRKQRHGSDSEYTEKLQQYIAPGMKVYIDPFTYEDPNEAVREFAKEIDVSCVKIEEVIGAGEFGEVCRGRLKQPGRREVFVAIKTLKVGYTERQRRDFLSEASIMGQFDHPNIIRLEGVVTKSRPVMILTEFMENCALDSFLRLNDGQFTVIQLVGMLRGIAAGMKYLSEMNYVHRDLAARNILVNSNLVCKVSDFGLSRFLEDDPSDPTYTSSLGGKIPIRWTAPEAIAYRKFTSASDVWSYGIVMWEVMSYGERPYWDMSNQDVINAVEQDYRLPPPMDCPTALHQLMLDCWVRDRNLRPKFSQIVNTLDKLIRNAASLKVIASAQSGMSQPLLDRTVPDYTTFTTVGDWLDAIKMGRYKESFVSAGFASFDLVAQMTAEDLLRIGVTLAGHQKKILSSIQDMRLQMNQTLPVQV
The data set is described as follows: Inhibition of EPHB3 (unknown origin) assessed as residual activity incubated for 5 mins in presence of [gamma-33ATP] by scintillation counting based radiometry assay.

Data set [7] can be described thus: Cytotoxicity against human THLE3 assessed as reduction in cell viability incubated for 72 hrs by Cell Titer Glo 2.0 reagent based assay. As to conditions: THLE3 cells.
Data set [8] concerns the target Ephrin type-A receptor 4 (Homo sapiens) (UniProt P54764). Kind of data set: Inhibition of EPHA4 (unknown origin) assessed as residual activity incubated for 5 mins in presence of [gamma-33ATP] by scintillation counting based radiometry assay.
The nature of data set [9]: Cytotoxicity against HEK293 cells assessed as reduction in cell viability incubated for 72 hrs by Cell Titer Glo 2.0 reagent based assay. As to conditions: human.

SMILES strings stand for the structures.

Ephrin type-A receptor 4 (Homo sapiens), sequence (P54764 whole entry, looked up): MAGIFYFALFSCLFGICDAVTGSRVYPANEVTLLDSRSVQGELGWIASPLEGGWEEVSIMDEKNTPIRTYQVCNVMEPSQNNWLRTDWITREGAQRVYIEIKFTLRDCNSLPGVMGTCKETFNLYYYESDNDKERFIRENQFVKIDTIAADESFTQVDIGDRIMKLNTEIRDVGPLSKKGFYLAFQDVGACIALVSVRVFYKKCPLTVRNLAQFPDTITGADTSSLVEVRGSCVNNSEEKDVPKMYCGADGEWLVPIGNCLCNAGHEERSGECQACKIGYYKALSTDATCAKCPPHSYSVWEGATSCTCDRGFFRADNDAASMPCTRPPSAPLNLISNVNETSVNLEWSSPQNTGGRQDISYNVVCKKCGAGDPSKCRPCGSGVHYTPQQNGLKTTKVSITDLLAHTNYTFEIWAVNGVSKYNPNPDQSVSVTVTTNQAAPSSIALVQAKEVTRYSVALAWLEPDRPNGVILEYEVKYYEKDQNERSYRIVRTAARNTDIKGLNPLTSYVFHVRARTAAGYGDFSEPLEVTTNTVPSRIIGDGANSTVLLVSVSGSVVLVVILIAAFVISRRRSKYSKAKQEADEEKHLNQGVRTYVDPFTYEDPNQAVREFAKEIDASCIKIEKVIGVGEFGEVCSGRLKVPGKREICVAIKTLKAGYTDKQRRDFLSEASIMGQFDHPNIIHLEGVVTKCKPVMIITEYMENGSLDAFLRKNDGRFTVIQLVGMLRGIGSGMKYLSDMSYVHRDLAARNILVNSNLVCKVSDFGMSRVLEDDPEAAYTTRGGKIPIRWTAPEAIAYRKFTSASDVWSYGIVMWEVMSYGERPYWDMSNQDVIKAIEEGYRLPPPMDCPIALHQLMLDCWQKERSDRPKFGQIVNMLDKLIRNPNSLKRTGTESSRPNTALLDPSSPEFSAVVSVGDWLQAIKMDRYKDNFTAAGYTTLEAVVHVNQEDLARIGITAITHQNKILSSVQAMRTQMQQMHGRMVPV
Tyrosine-protein kinase Lck, sequence (P06239 whole entry): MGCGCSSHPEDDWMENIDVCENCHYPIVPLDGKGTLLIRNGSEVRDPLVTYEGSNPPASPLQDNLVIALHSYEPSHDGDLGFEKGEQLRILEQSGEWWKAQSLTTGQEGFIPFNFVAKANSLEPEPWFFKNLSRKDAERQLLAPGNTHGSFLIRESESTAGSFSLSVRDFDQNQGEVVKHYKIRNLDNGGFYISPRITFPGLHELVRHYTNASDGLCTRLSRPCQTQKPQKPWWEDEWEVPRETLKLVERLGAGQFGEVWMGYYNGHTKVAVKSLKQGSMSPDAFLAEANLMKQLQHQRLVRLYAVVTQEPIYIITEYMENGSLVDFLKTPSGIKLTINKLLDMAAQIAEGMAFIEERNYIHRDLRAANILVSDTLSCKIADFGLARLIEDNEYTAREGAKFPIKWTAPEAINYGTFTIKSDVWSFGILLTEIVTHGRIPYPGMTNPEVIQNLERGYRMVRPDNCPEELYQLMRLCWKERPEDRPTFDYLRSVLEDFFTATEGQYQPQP
Platelet-derived growth factor receptor alpha, sequence (P16234 whole entry): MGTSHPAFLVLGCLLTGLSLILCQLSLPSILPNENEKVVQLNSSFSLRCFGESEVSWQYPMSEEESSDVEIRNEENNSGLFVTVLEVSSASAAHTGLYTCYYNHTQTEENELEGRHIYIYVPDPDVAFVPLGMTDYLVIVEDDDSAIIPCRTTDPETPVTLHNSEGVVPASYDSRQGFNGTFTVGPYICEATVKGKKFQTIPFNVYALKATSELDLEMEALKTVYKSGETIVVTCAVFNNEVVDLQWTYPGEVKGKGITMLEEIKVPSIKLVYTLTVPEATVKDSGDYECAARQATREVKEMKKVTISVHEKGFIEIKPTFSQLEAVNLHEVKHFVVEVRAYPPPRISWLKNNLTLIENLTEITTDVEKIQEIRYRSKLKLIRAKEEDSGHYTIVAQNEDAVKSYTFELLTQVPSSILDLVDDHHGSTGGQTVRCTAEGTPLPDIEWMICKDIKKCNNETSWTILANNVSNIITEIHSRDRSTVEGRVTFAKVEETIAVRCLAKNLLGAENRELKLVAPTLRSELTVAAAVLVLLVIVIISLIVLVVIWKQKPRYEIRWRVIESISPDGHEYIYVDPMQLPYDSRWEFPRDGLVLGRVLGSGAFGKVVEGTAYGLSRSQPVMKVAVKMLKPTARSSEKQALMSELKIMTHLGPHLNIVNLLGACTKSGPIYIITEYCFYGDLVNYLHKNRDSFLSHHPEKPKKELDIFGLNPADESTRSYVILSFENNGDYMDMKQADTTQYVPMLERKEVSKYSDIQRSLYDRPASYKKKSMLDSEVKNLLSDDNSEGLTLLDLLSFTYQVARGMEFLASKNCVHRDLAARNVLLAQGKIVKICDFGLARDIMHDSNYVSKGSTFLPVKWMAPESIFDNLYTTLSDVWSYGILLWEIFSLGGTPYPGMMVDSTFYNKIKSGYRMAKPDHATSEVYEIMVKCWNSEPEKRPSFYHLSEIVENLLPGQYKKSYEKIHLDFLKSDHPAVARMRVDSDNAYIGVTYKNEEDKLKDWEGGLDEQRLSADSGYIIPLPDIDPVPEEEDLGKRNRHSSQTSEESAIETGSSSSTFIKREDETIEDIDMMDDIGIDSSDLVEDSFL
Proto-oncogene tyrosine-protein kinase Src, sequence (P12931 2-536 limits assumed): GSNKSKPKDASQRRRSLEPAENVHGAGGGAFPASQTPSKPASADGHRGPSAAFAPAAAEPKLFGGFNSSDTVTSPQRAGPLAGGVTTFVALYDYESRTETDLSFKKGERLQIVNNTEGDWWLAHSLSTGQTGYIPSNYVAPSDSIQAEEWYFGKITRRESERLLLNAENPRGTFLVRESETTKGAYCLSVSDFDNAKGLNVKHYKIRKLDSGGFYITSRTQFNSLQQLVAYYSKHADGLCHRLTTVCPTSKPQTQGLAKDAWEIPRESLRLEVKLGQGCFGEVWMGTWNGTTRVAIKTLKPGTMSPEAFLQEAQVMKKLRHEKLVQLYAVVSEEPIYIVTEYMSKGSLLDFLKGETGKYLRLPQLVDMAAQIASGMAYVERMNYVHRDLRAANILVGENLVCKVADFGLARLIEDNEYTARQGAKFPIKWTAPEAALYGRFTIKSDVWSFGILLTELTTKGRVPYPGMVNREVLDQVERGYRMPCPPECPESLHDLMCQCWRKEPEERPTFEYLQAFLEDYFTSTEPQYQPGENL
Serine/threonine-protein kinase Nek6, sequence (Q9HC98 whole entry): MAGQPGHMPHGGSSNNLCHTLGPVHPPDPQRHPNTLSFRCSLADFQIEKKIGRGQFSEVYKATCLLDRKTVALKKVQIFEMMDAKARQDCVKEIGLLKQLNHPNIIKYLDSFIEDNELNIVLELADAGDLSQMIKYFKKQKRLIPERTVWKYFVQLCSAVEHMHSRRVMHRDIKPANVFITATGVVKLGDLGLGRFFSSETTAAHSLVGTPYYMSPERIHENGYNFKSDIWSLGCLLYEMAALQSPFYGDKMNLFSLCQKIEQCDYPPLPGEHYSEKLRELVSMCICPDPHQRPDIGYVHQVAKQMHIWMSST

As for `Cc1ccc(C(=O)Nc2ccc(CN3Cc4cn[nH]c4C3)c(Cl)c2)cc1C#Cc1cnc2cccnn12`, the IC50 in data set [1] amounted to 5350 nM; in data set [3], 2 nM; in [4], 431 nM; in [5] it was 26.1 nM; in [6], 19.5 nM; in data set [8], 84.6 nM. In addition, the Activity in data set [2] stood at 2%. Further, the CC50 at 72 h in data set [7] and in data set [9] was > 50000 nM each time.
